Experimental data reported in US20140147434A1, “NCoR1 is a Physiological Modulator of Muscle Mass and Oxidative Function” (ECOLE POLYTECHNIQUE FEDERALE DE LAUSANNE (EPFL), priority 2011, published 2014).

Assays:
[1] = system: NCoR1; assay: NCoR1 localization by immunofluorescence and subcellular fractionation in 293T cells; type: cell-based; settings: one hour after stimulation with 1 μM insulin
Protocol: (§1) (A-C) Localization of NCoR1 protein was determined either by immunofluorescence and quantified (A and B) and by western blot (C). 293T cells grown without (−) or with (+) 1 µM insulin for 1 hr were stained by DAPI or anti-NCoR1 (A). Quantification of nuclear NCoR1 is shown in (B). Nuclear and cytosolic fractions were separated from FLAG-NCoR1 transfected 293T cells after a 1 hr-stimulation without (−) or with 1 μM insulin (+) and protein levels were determined by western blotting (C). (D) mRNA levels of NCoRs and its target genes determined by qRT-PCR in MEFs cultured for 24 hr in 5 or 25 mM glucose (n=6). (E) NCoR1 protein was determined by western blotting from MEFs cultured for 24 hr in 5 or 25 mM glucose. (F) NCoR1 and SMRT mRNA was determined in MEFs cultured for 48 hr in 0, 5, and 25 mM glucose. (G) NCoR1 protein was determined by western blotting from MEFs cultured for 24 hrs in 0, 5, or 25 mM glucose. […] (I) NCoR1 protein determined by western blotting from MEFs cultured as indicated in (G). (J) NCoR1 mRNA measured by qRT-PCR in muscles of resting mice or 3 hrs after an endurance run (14-wk old; n=5), in mice that were fed for 20 wks either with HFD or CD (28-wk old; n=8), in mice that were fasted or fed for 16 hrs (14-wk old; n=10), and in 6-month or 2-year old mice (n=10). […] Data are expressed as mean±SEM.
(A) Localization of NCoR1 is determined by the immunofluorescence experiments. […]

[2] = system: NCoR1; assay: NCoR1 mRNA and protein in MEFs cultured with oleic acid; type: cell-based, mouse; settings: oleic acid added to the medium (0.03 mM, 48 hr), independently of the glucose concentration
Protocol: as §1, with “mean±SEM. […]” for “mean±SEM.”

[3] = system: SMRT; assay: SMRT mRNA in MEFs cultured with oleic acid; type: cell-based, mouse; settings: with OA in the absence of glucose
Protocol: The mRNA expression levels were measured in cells and tissues using qRT-PCR (Lagouge et al., 2006).

[4] = system: Ucp3 promoter; assay: ChIP of endogenous NCoR1 recruitment to the Ucp3 promoter PPREs in C2C12 myotubes; type: cell-based, mouse; settings: 6 hr after addition of 100 nM GW501516
From the text: (A, B, E, F, and H) NCoR1 recruitment to the PPREs on mouse Ucp3 promoter and to the ERR-RE on human and mouse Pdk4 promoter determined by ChIP in NIH-3T3 cells transfected with an NCoR1-FLAG vector or in C2C12 myotubes. A schematic of the promoters of the Ucp3 (A) and Pdk4 (E) genes and the sequence alignment of the mouse, rat and human Pdk4 promoter is also shown to highlight the conservation of the NR1/2 (or ERR-RE) (E). Boxes indicate putative PPREs in the Ucp3 and the NR1/2, IRS, and Sp1 in the Pdk4 promoter. ChIP experiments for the Ucp3 promoter were performed in C2C12 myotubes both before and 6 hr after addition of a PPARIβ/δ (100 nM GW501516); not detected. ChIP experiments in HEK293 cells transfected with FLAG-NCoR1 and HA-ERRα vector (H). (C and G) Binding of acetylated histone 4 (H4) to the PPREs on the Ucp3 and to the NR1/2 on the Pdk4 promoters in ChIP assays, using either immortalized NCoR1^L2/L2MEFs, infected with an adenovirus either expressing GFP or Cre recombinase, or C2C12 myotubes infected with the Ad-shNCoR1 virus. Representative data is shown from 3 experiments. (D) Interaction between PPARβ/δ and NCoR1 determined by in vitro co-IP experiments from HEK293 cells, in which NCoR1-FLAG and/or V5-PPARβ/δ are expressed. […] Data are expressed as mean±SEM. […]

insulin
amounts of endogenous NCoR1 or transfected FLAG-NCoR1 detected in nuclei [1]: higher amounts

CCCCCCCC/C=C\CCCCCCCC(=O)O [oleic acid]
NCoR1 levels [2]: decreased
SMRT mRNA levels [3]: only a small difference

Cc1cc(SCc2sc(-c3ccc(C(F)(F)F)cc3)nc2C)ccc1OCC(=O)O [GW501516]
recruitment of NCoR1 to the Ucp3 promoter [4]: robustly inhibited
